{"source": "patent US10537611B2", "about": "“Methods of treating lung cancer” (Five Prime Therapeutics, Inc., priority 2011, dated 2020)", "key": {"Y79 xenograft model": {"system": "Y79 xenograft model", "assay": "Y79 xenograft tumor growth inhibition", "type": "in vivo, mouse", "details": "Retinoblastoma Y79; IP 10 mg/kg BIW; non-amplified; P ns", "procedure": "(§1) Percentage tumor growth inhibition by FGFR1-ECD.339-Fc was determined by area-under-the-curve (AUC) analysis of xenograft growth curves treated with FGFR1-ECD.339-Fc compared to albumin control. […] The difference in FGFR1-ECD.339-Fc-mediated xenograft inhibition between FGFR1 gene amplified and non-amplified lung cancer xenograft models was statistically significant (P=0.0333).\n(§2) Also shown in Table 5 are the dosing schedule for FGFR1-ECD.339-Fc in a mouse xenograft model, the percent tumor growth inhibition (TGI (%)) and the statistical significance of the tumor growth inhibition (P Value), as well as whether the FGFR1 gene is amplified in the cell line.\n(§3) An exemplary xenograft experiment is as follows. For Caki-1 and MSTO-211H, five million cells were implanted subcutaneously over the right flank of SCID mice (N=10 per group). […] Representative tumor growth curves are shown for a renal cancer, Caki-1, (A), and mesothelioma, MSTO-211H, (B) xenograft cancer model. […] In the MSTO-211H mesothelioma model, FGFR1-ECD.339-Fc administration reduced tumor growth (FIG. 16b) by 64% (P<0.0001)."}, "NCI-H358 xenograft model": {"system": "NCI-H358 xenograft model", "assay": "NCI-H358 xenograft tumor growth inhibition", "type": "in vivo, mouse", "details": "Lung NCI-H358; IP 15 mg/kg BIW; non-amplified; P ns", "source_text": "(§4) The impact of FGFR1-ECD.339-Fc on tumor growth was compared between FGFR1 gene amplified and non-amplified lung cancer xenograft models. Lung cell lines without FGFR1-amplification examined in this experiment were as follows: A549, NCI-H460, NCI-H226, NCI-H2126, NCI-H441, NCI-H358, NCI-H522 and Colo699. Non-amplified cell lines were purchased from ATTC (Manassas, Va.) and cultured according to supplier instructions. Lung cancer xenograft models using non-FGFR1 gene amplified cell lines were carried out substantially as described in Example 2.\nas §1"}, "DMS53 cells": {"system": "DMS53 cells", "assay": "CellTiter-Glo cell number, DMS53", "type": "cell-based, human", "details": "15 μg/ml, 4 days, 10%, 1% or 0.1% FBS", "source_text": "A panel of lung cancer cell lines displaying potential amplification of the FGFR1 gene was identified using CONAN (http://www.sanger.ac.uk/cgi-bin/genetics/CGP/conan/search.cgi) and Tumorscape (http://www.broadinstitute.org/tumorscape/pages/portalHomejsf). CONAN and Tumorscape represent public data mining tools to extract gene copy number information for predefined or user defined loci across the SNP6.0 dataset of cancer. Lung cancer cell lines DMS53, DMS114, NCI-H1581 and NCI-H520 were identified as having potential amplification of the FGFR1 gene (>4 copies/cell) and were selected for further analysis. Human small cell lung cancer (SCLC) cell lines DMS53 and DMS114 were purchased from ATCC (Manassas, Va.; Cat. No. CRL-2062; Cat. No. CRL-2066, respectfully). The cells were cultured in Waymouth's MB 752/1 medium+10% FBS+2 mM L-glutamine at 37° C. in a humidified atmosphere with 5% CO2. […]\nTo determine cell number the CellTiter-Glo® Luminescent Cell Viability Assay (Promega, Madison, Wis.) was employed. CellTiter-Glo® is a homogeneous method of determining the number of viable cells in culture based on quantitation of the ATP present, an indicator of metabolically active cells. […] Luminescence was then determined on an EnVision™ Multilabel Plate Reader (PerkinElmer, Boston, Mass.) with a 0.2 second integration time. Results were expressed as relative light units (RLU)/well."}, "[1]": {"system": "VEGF-induced proliferation of HUVEC cells", "assay": "VEGF-A induced HUVEC proliferation", "type": "cell-based, human", "details": "10 μg/ml; 15 ng/ml VEGF-A165; 3 days, CellTiter-Glo", "procedure": "To determine whether FGFR1-ECD.339-Fc blocks VEGF-induced proliferation of endothelial cells, HUVEC cells (Life Technologies, Grand Island, N.Y.) were seeded at a density of 4×10^3 cells/well in basal media (Medium 200 (Life Technologies) with 2% heat inactivated FBS) and stimulated with either 10 ng/ml FGF2 (R&D Systems, Minneapolis, Minn.) or 15 ng/ml VEGF-A165 (R&D Systems, Minneapolis, Minn.) either in the presence of absence of 10 μg/ml FGFR1-ECD.339-Fc. HUVEC cell proliferation was determined 3 days post-stimulation using CellTiter-Glo® Luminescent Cell Viability Assay."}, "NCI-H441 xenograft model": {"system": "NCI-H441 xenograft model", "assay": "NCI-H441 xenograft tumor growth inhibition", "type": "in vivo, mouse", "details": "Lung NCI-H441; IP 15 mg/kg BIW; non-amplified; P ns", "source_text": "as §4, §1"}, "[2]": {"system": "MDA-MB-231 xenograft model", "assay": "MDA-MB-231 xenograft tumor growth inhibition", "type": "in vivo, mouse", "details": "Breast MDA-MB-231; IP 15 mg/kg BIW; non-amplified; P ns", "procedure": "as §1, §2, §3"}}, "data": [{"substance": "FGFR1-ECD.339-Fc: human FGFR1 extracellular domain ending at amino acid 339 fused to an Fc; SEQ ID NO: 6 (mature form), SEQ ID NO: 5 with signal peptide", "values": [{"measurement": "TGI (%)", "setting": "Y79 xenograft model", "result": 0, "unit": "%"}, {"measurement": "TGI (%)", "setting": "NCI-H358 xenograft model", "result": 0, "unit": "%"}, {"measurement": "cell number (CellTiter-Glo)", "setting": "DMS53 cells", "result": "reduced"}, {"measurement": "VEGF-induced proliferation of HUVECs", "setting": "[1]", "result": "did not block"}, {"measurement": "TGI (%)", "setting": "NCI-H441 xenograft model", "result": 0, "unit": "%"}, {"measurement": "TGI (%)", "setting": "[2]", "result": 0, "unit": "%"}]}]}
